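Protocol summary: plate cells (96-well), add compound at 5 concentrations, incubate 48 h, interpolate endpoints linearly. GI50: concentration for 50% inhibition of growth.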 The source made the active and inactive calls. No stated cut-off is given here; in the data, active = GI50 up to about 1.1 µM and inactive = higher.
What was measured:
Assay in all cases: NCI anticancer screen, dose series, 48 h
SW-620 = test system: SW-620
SK-OV-3 = test system: SK-OV-3
EKVX = test system: EKVX
OVCAR-8 = test system: OVCAR-8
M19-MEL = test system: M19-MEL
HOP-18 = test system: HOP-18
NCI-H226 = test system: NCI-H226
MOLT-4 = test system: MOLT-4
SR = test system: SR
HCT-116 = test system: HCT-116
XF498 = test system: XF498
CAKI-1 = test system: CAKI-1
M14 = test system: M14
U-251 = test system: U-251
SK-MEL-5 = test system: SK-MEL-5
NCI-H460 = test system: NCI-H460
OVCAR-5 = test system: OVCAR-5
UACC-62 = test system: UACC-62
SK-MEL-28 = test system: SK-MEL-28
HT-29 = test system: HT-29
A498 = test system: A498
NCI-H23 = test system: NCI-H23
DLD-1 = test system: DLD-1
RXF 631 = test system: RXF 631
HCC 2998 = test system: HCC 2998
Malme-3M = test system: Malme-3M
HOP-92 = test system: HOP-92
K562 = test system: K562
SF-295 = test system: SF-295
HOP-62 = test system: HOP-62
DMS-114 = test system: DMS-114
NCI-H522 = test system: NCI-H522
UO-31 = test system: UO-31
ACHN = test system: ACHN
CCRF-CEM = test system: CCRF-CEM
KM12 = test system: KM12
SNB-19 = test system: SNB-19
HCT-15 = test system: HCT-15
SF-539 = test system: SF-539
OVCAR-4 = test system: OVCAR-4
DMS-273 = test system: DMS-273
OVCAR-3 = test system: OVCAR-3
SNB-75 = test system: SNB-75
SF-268 = test system: SF-268
COLO 205 = test system: COLO 205
HL-60 = test system: HL-60
IGROV-1 = test system: IGROV-1
SNB-78 = test system: SNB-78
LXFL 529 = test system: LXFL 529
A549 = test system: A549
SK-MEL-2 = test system: SK-MEL-2
UACC-257 = test system: UACC-257
SN12C = test system: SN12C
TK-10 = test system: TK-10
RXF 393 = test system: RXF 393
786-0 = test system: 786-0
KM-20L2 = test system: KM-20L2

CSc1s[s+]c(SC)c1[O-]
GI50 (SW-620): 17.8 µM (inactive) | GI50 (SK-OV-3): > 100 µM (inactive) | GI50 (EKVX): 75.7 µM (inactive) | GI50 (OVCAR-8): 20.1 µM (inactive) | GI50 (M19-MEL): 15.5 µM (inactive) | GI50 (HOP-18): > 100 µM (inactive) | GI50 (NCI-H226): > 100 µM (inactive) | GI50 (MOLT-4): 13.3 µM (inactive) | GI50 (SR): 9.95 µM (inactive) | GI50 (HCT-116): 17.1 µM (inactive) | GI50 (XF498): 45.8 µM (inactive) | GI50 (CAKI-1): 20.7 µM (inactive) | GI50 (M14): 17.5 µM (inactive) | GI50 (U-251): 26.7 µM (inactive) | GI50 (SK-MEL-5): 90.6 µM (inactive) | GI50 (NCI-H460): 29.3 µM (inactive) | GI50 (OVCAR-5): > 100 µM (inactive) | GI50 (UACC-62): 14.4 µM (inactive) | GI50 (SK-MEL-28): 17.1 µM (inactive) | GI50 (HT-29): 24.7 µM (inactive) | GI50 (A498): > 100 µM (inactive) | GI50 (NCI-H23): 20.5 µM (inactive) | GI50 (DLD-1): 16.5 µM (inactive) | GI50 (RXF 631): 19.2 µM (inactive) | GI50 (HCC 2998): > 100 µM (inactive) | GI50 (Malme-3M): 16.6 µM (inactive) | GI50 (HOP-92): 33 µM (inactive) | GI50 (K562): 3.94 µM (inactive) | GI50 (SF-295): 47.9 µM (inactive) | GI50 (HOP-62): > 100 µM (inactive) | GI50 (DMS-114): 17.5 µM (inactive) | GI50 (NCI-H522): 15.7 µM (inactive) | GI50 (UO-31): > 100 µM (inactive) | GI50 (ACHN): 38.4 µM (inactive) | GI50 (CCRF-CEM): 8.77 µM (inactive) | GI50 (KM12): 62.4 µM (inactive) | GI50 (SNB-19): > 100 µM (inactive) | GI50 (HCT-15): 32.9 µM | GI50 (SF-539): 20.6 µM (inactive) | GI50 (OVCAR-4): 51.2 µM (inactive) | GI50 (DMS-273): 27.4 µM (inactive) | GI50 (OVCAR-3): 26.5 µM (inactive) | GI50 (SNB-75): 38.6 µM (inactive) | GI50 (SF-268): 20.9 µM (inactive) | GI50 (COLO 205): 27.2 µM (inactive) | GI50 (HL-60): 17.4 µM (inactive) | GI50 (IGROV-1): 83.6 µM (inactive) | GI50 (SNB-78): 55.1 µM (inactive) | GI50 (LXFL 529): 18.7 µM (inactive) | GI50 (A549): > 100 µM (inactive) | GI50 (SK-MEL-2): 32.3 µM (inactive) | GI50 (UACC-257): 17.7 µM (inactive) | GI50 (SN12C): 22.1 µM (inactive) | GI50 (TK-10): > 100 µM (inactive) | GI50 (RXF 393): 21.2 µM (inactive) | GI50 (786-0): 16.5 µM (inactive) | GI50 (KM-20L2): 80.7 µM (inactive)
